Test results published in article PMC12250302, “Synthesis, Antimicrobial Activities, and Model of Action of Novel Tetralone Derivatives Containing Aminoguanidinium Moiety” (International Journal of Molecular Sciences, 2025).
In brackets after ≈: the same amount, converted by molar mass.

What was measured:
[1] = test system: sheep red blood cells; assay: Hemolytic activity; assay type: cell-based
Procedure: The hemolysis of compound 2D was determined by its ability to lyse sheep red blood cells. The results were expressed as the HC50 value (the concentration at which 50% of red blood cells were lysed).
The sterile defibrillated sheep blood cells were centrifuged (5000 rpm, 5 min) and then washed three times with 0.9% saline. Subsequently, 1 μL of different concentrations of 2D (0.5–128 μg/mL) was mixed with 999 μL of red blood cell suspension. After incubation at 37 °C for 1 h, the mixed solution was centrifuged. The absorbance of the supernatant at 570 nm was measured. Triton X-100 (0.1%) was used as a positive control, and DMSO was used as a negative control. The hemolysis rate was calculated according to the following formula:Hemolysis rate (%) = (ODTreatment − ODNegative)/(ODPositive − ODNegative) × 100%(1)

[2] = test system: E. coli ATCC 25922; assay: MIC and MBC testing, broth microdilution; assay type: cell-based, Escherichia coli; details: Escherichia coli
How it was run: (§1)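 Twofold serial dilutions of compound in DMSO were prepared in MH broth and mixed with log-phase bacteria, which had been diluted to 1 × 10^6 CFU/mL before mixing. Plates were incubated 18 h at 37 °C. MIC was the lowest concentration without visible growth, in triplicate.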

[3] = test system: S. aureus (ATCC 29213); assay: Bactericidal time-kill kinetics assay; assay type: cell-based, Staphylococcus aureus; details: 2, 4 and 8 µg/mL, 0-24 h
Procedure: (§2) S. aureus (ATCC 29213) and MRSA-2 were cultivated in MH broth until the logarithmic growth phase and then diluted to 1 × 10^7 CFU/mL, respectively. […] After a specified time interval (0, 1, 2, 4, 8, 12, and 24 h), the culture suspension was serially diluted in 0.9% saline over a concentration range from 10^−1 to 10^−9. A volume of 100 μL of the obtained diluent and culture solution was dispensed onto a sterile MH agar plate. The plate was subsequently cultured at 37 °C for a duration of 24 h. The total number of colonies was enumerated and expressed as log10(CFU/mL).

[4] = test system: MRSA-2; assay: Bactericidal time-kill kinetics assay; assay type: cell-based, Staphylococcus aureus; details: 2, 4 and 8 µg/mL, 0-24 h
Procedure: as §2

[5] = test system: MRSA-2; assay: Membrane depolarization assay, DiSC3(5); assay type: cell-based, Staphylococcus aureus; details: 2, 4, and 8 μg/mL
Procedure: MRSA-2 was cultivated in MH broth, with a final concentration of 1 × 10^8 CFU/mL. After centrifugation, the supernatant was discarded. The bacterial precipitate was washed thrice and resuspended with PBS. Subsequently, the bacterial resuspension (180 μL) and the DiSC5 (10 μL, 3 μM) were incubated in the dark for 30 min. The fluorescence intensity was measured at 2 min intervals for a period of 10 min. After the fluorescence intensity was stabilized, 10 μL of 2D (final concentrations of 1, 2, 4, and 8 μg/mL) was added, respectively. The fluorescence intensity was measured at 2 min intervals for a total duration of 30 min. The excitation/emission wavelength was 622/670 nm.

[6] = test system: P. aeruginosa ATCC 27853; assay: MIC and MBC testing, broth microdilution; assay type: cell-based, Pseudomonas aeruginosa; details: Pseudomonas aeruginosa
How it was run: as §1

[7] = test system: K. pneumoniae ATCC 700603; assay: MIC and MBC testing, broth microdilution; assay type: cell-based, Klebsiella pneumoniae; details: Klebsiella pneumoniae
How it was run: as §1

[8] = test system: A. baumannii ATCC 19606; assay: MIC and MBC testing, broth microdilution; assay type: cell-based, Acinetobacter baumannii; details: Acinetobacter baumannii
How it was run: as §1

[9] = test system: MRSA-2; assay: Bacterial DNA and protein leakage experiment; assay type: cell-based, Staphylococcus aureus; details: compared with the control group; 4 h
Procedure: MRSA-2 was cultured to logarithmic growth phase. The bacterial precipitate was collected, washed twice with PBS (pH = 7.2–7.4), and resuspended in PBS to 1 × 10^7 CFU/mL. […] After centrifugation of 1 mL of the suspension, the supernatant was collected. The protein level was measured by BCA protein concentration kits (Servicebio, Hubei, China), and the DNA level was detected by microspectrophotometer.

[10] = test system: S. aureus (ATCC 29213); assay: Growth curve (OD600); assay type: cell-based, Staphylococcus aureus; details: 2D 0.5, 1, 2, 4, 8 µg/mL, vancomycin 0.5 and 1 μg/mL
Procedure: (§3) The growth inhibition and time-dependent killing abilities of 2D were evaluated against S. aureus (ATCC 29213) and MRSA-2. After culturing the strains in MH broth until the logarithmic growth phase, they were diluted with MH broth to 1 × 10^6 CFU/mL. […] OD600 values were measured at predetermined time intervals (0, 1, 2, 4, 6, 8, 10, 12, and 24 h).

[11] = test system: MRSA-2; assay: Growth curve (OD600); assay type: cell-based, Staphylococcus aureus; details: 2D 0.5, 1, 2, 4, 8 µg/mL, vancomycin 0.5 and 1 μg/mL
Procedure: as §3

[12] = test system: S. aureus ATCC 29213; assay: MIC and MBC testing, broth microdilution; assay type: cell-based, Staphylococcus aureus; details: Staphylococcus aureus, ATCC29213, S. aureus ATCC 29213
How it was run: as §1

With `[H]/N=C(\N)NN=C1CCCc2cc(OCCCCCCC)ccc21` [Compound 2D, (E)-2-(6-(heptyloxy)-3,4-dihydronaphthalen-1(2H)-ylidene)hydrazine-1-carboximidamide] the “Selectivity index (SI)” value ([1]; SI = HC50/MIC ATCC 29213) was 101.30, the HC50 ([1]; sheep red blood cells, 37 °C, 1 h) was 50.65 µg/mL and the MIC ([2]; ATCC25922, 18 h, read-out: MIC) was 4 µg/mL (≈ 12.6 µM). For the same molecule, the MBC ([2]; ATCC25922, read-out: MBC) was 8 µg/mL (≈ 25.3 µM), the time-kill response [3] was “concentration-dependent and time-dependent bactericidal response” and the time-kill response [4] was “concentration-dependent and time-dependent bactericidal response”. The “DiSC3(5) fluorescence intensity (depolarization)” value [5] was “increased instantaneously”, the MIC ([6]; ATCC27853, 18 h, read-out: MIC) was 16 µg/mL (≈ 50.6 µM) and the MBC ([6]; ATCC27853, read-out: MBC) was 32 µg/mL (≈ 101 µM). It also gave an MIC ([7]; ATCC700603, 18 h, read-out: MIC) of 16 µg/mL (≈ 50.6 µM), an MBC ([7]; ATCC700603, read-out: MBC) of 32 µg/mL (≈ 101 µM) and an MIC ([8]; ATCC19606, 18 h, read-out: MIC) of 4 µg/mL (≈ 12.6 µM). For the same molecule, the MBC ([8]; ATCC19606, read-out: MBC) was 16 µg/mL (≈ 50.6 µM), the “content of extracellular DNA” value [9] was “significantly increased” and the “content of extracellular protein” value [9] was “significantly increased”. The “growth inhibition (growth curve)” value [10] was “able to suppress the growth”, the “growth inhibition (growth curve)” value [11] was “able to suppress the growth” and the MIC ([12]; 18 h, read-out: MIC) was 0.5 µg/mL (≈ 1.58 µM). It also gave an MBC ([12]; read-out: MBC) of 4 µg/mL (≈ 12.6 µM).
